# Experiments:
# U2OS DR-GFP cells = assay: DR-GFP (HR) assay; format: cell-based; conditions: DMSO = 100% activity
# Procedure: 5 × 10^4 U2OS (DR-GFP) cells were seeded into 12-well plates, 24 h later cells were treated with the indicated siRNAs or inhibitors and, 24 h later, transfected with 150 ng of an I-SceI vector using JetPEI or JetPRIME (Polyplus transfections). The next day, the medium was changed; 24 h after this, cells were harvested by trypsinization and washed with PBS, and the GFP signal was measured by flow cytometry on a FACS Navios (as described above). The frequency of repair in cells treated with inhibitors or transfected with the various siRNAs was calculated relative to cells treated with DMSO or transfected with control siRNA.
# U2OS cells [1] = assay: IR-induced RAD51 / RPA32 foci, confocal; format: cell-based; conditions: in combination with IR
# Procedure: Cells were grown on sterilized coverslips and fixed with 4% paraformaldehyde (PFA) (Santa Cruz) and 2% sucrose (Sigma Aldrich) for 15 min at room temperature. They were then permeabilized with 0.2% NP-40 (Thermo Scientific) for 10 min at room temperature followed by 30 min of blocking in blocking buffer (2 or 3% BSA, 5% glycerol, 0.1% Tween 20 (Sigma Aldrich)). Coverslips were subsequently incubated for 1, 2, or 24 h in primary antibody and 40 min in secondary antibody diluted in blocking buffer, DNA was stained with DAPI for 10 min. The coverslips were mounted with Prolonged Gold mounting medium (Invitrogen). Images were acquired with a Zeiss LSM 780 microscope using a 40× or 63× oil immersion lens and processed in ImageJ and CellProfiler.
# To visualize PFKFB3, RPA32, RAD51, BRCA1, 53BP1, and RRM2 IRIF, the cells were first washed with PBS and then incubated for 5 min at room temperature with cytoskeleton (CSK) buffer containing 10 mM PIPES pH 7.0 (Sigma Aldrich), 100 mM NaCl (EMD Millipore), 300 mM sucrose (Sigma Aldrich), 3 mM MgCl2 (Sigma Aldrich), and 0.7% Triton X-100 (Sigma Aldrich). After these treatments, the cells were washed once again with PBS and then fixed in 4% PFA with 2% sucrose.
# U2OS cells [2] = assay: DDR signaling, western blot / RPA32 intensity; format: cell-based
# Procedure: Cells were lysed on ice using the NP-40 lysis buffer (50 mM Tris–HCl pH 8.0, 150 mM NaCl, 1% NP-40) supplemented with protease and phosphatase inhibitors (Roche). Protein lysates were quantified using the Pierce BCA Protein Assay Kit (ThermoFisher Scientific), equal amounts of protein were heated to 70 °C in NuPAGE LDS Sample Buffer (ThermoFisher Scientific) and loaded on Mini-PROTEAN® precast gels (Bio-Rad) and run at 120 V. Transfer to nitrocellulose membrane (Bio-Rad) was done using Trans-Blot Turbo Transfer System (Bio-Rad). Membranes were blocked for 1 h at RT in blocking buffer (5% BSA, 0.1% Tween-20 in PBS, or 1:1 Li-Cor Blocking Buffer/TBS + 0.05% Tween-20 (TBS-T)), incubated with primary antibodies overnight at 4 °C and then incubated 1 h at RT with secondary antibodies diluted at 1:10,000 in 1:1 Li-Cor blocking buffer/TBS-T. Bands were visualized with an Odyssey Fc Imager and analyzed with ImageJ or with Image Studio Software (Li-Cor Biosciences). Uncropped western blots are shown in Supplementary Figure 10, 11, 12, 13, 14, 15, 16.
# U2OS cells [3] = assay: Intracellular dNTP measurement (HIV-1 RT-based); format: cell-based; conditions: 4 h and 24 h, relative to DMSO
# Procedure: HIV-1 RT-based dNTP assay[55] was used to quantify dNTP levels in U2OS cells upon indicated treatment and time points. Briefly, cells were trypsinized and counted before dNTPs extraction by 60% methanol solution, the dried dNTP samples were resuspended with water, and then RT-based primer extension reaction was performed to determine the amounts of dNTPs. Obtained dNTP amounts were normalized to 1 × 10^6 cells, and dNTP levels were related to control treatment with DMSO.
# FGFR2 = target: T1, FGFR2 (Homo sapiens, UniProt P21802); assay: KINOMEscan; format: binding; conditions: 2000 nM; read-out: Percent Control
# T1 construct: purchased DiscoverX (Eurofins) KINOMEscan / scanEDGE, inferred from the naming style
# PFKFB4 = PFKFB4 (Homo sapiens, UniProt Q16877); assay: ADP-Glo kinase activity assay, PFKFB4; format: biochemical
# Procedure: The kinase activity of the bi-functional enzyme was quantified based on the production of ADP and F-2,6-P2 from ATP by ADP-GloTM Kinase Assay (Promega). The assay was performed in two steps; first, after the kinase reaction, an equal volume of ADP-GloTM Reagent was added to terminate the kinase reaction and deplete the remaining ATP. Second, the Kinase Detection Reagent was added to simultaneously convert ADP to ATP and allow the newly synthesized ATP to be measured using a luciferase/luciferin reaction. The light generated was measured using a luminescence counter (1450 MicroBeta TriLux). The assay was performed in white 384-well plates (OptiPlate, 6007299, PerkinElmer) by consecutive additions of a test compound solution (0.1 µL, serial diluted in DMSO from compound DMSO stock solution and dispensed by acoustic dispensing from UV-star 384-well plate 7360153, VWR), enzyme solution (5 µL) and substrate (fructose-6-phosphate (F6P) and adenosine-5′-triphosphate (ATP)) containing solution (5 µL). […] Four reference dose–response curves, one of them being the QC compound, were included and serial diluted as the test compounds. […] The inhibitory potency or IC50 values of test compounds on the kinase activity of the enzymes were calculated using a four-parameter model (model 205) in XLfit (IDBS ActivityBase XE Runner).
# DCAMKL1 = target: T2, DCAMKL1 (Homo sapiens, UniProt O15075); assay: KINOMEscan; format: binding; conditions: 2000 nM; read-out: Percent Control
# T2 construct: purchased DiscoverX (Eurofins) KINOMEscan / scanEDGE, inferred from the naming style
# ABL1-phosphorylated = target: T3, ABL1-phosphorylated (Homo sapiens, UniProt P00519); assay: KINOMEscan; format: binding; conditions: 2000 nM; read-out: Percent Control
# T3 construct: purchased DiscoverX (Eurofins) KINOMEscan / scanEDGE, inferred from the naming style
# CDK9 = target: T4, CDK9 (Homo sapiens, UniProt P50750); assay: KINOMEscan; format: binding; conditions: 2000 nM; read-out: Percent Control
# T4 construct: purchased DiscoverX (Eurofins) KINOMEscan / scanEDGE, inferred from the naming style
# T4 sequence (P50750 whole entry): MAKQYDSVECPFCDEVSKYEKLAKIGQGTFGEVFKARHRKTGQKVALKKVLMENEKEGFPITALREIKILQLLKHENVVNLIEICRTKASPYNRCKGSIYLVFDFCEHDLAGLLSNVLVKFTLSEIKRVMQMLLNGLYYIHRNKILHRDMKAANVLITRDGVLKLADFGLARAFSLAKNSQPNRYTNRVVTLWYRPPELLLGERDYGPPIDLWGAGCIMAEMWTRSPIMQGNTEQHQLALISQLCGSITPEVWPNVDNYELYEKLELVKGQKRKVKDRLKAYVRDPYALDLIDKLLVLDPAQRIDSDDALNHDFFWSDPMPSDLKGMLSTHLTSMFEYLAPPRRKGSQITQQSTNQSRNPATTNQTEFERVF
# Chain of PFKFB4 (Q16877 whole entry, species assumed): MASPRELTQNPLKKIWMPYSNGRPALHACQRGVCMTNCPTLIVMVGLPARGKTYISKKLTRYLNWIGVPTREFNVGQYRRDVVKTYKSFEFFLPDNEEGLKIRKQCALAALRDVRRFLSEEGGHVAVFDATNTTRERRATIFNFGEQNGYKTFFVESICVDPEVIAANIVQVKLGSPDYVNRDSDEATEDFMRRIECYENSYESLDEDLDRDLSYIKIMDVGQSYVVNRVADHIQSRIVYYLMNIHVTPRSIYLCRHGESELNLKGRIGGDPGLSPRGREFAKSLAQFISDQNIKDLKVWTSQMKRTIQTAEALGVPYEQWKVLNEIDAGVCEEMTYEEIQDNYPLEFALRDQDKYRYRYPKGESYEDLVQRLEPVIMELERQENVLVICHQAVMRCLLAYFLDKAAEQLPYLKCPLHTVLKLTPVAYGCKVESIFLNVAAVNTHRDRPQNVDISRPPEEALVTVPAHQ
# T2 sequence (O15075 whole entry): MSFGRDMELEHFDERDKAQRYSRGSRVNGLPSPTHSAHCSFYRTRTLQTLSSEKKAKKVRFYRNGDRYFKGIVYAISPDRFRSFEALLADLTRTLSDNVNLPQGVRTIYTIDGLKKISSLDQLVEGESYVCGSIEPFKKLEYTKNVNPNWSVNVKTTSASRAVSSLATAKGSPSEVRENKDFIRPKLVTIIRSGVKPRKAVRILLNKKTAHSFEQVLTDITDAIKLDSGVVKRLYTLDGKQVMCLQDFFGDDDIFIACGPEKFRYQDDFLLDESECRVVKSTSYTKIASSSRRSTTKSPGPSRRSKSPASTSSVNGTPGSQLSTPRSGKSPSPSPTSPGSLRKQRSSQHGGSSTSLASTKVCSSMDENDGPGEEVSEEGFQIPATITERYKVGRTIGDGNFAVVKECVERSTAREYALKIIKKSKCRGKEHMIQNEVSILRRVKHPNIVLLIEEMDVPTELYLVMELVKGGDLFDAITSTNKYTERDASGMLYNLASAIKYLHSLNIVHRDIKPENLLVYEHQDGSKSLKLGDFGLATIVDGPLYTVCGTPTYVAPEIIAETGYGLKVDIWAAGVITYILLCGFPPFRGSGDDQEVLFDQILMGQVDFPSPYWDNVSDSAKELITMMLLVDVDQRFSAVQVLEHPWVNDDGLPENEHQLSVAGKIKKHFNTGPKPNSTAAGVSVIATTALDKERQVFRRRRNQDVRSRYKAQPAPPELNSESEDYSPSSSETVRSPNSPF
# T3 sequence (P00519 whole entry): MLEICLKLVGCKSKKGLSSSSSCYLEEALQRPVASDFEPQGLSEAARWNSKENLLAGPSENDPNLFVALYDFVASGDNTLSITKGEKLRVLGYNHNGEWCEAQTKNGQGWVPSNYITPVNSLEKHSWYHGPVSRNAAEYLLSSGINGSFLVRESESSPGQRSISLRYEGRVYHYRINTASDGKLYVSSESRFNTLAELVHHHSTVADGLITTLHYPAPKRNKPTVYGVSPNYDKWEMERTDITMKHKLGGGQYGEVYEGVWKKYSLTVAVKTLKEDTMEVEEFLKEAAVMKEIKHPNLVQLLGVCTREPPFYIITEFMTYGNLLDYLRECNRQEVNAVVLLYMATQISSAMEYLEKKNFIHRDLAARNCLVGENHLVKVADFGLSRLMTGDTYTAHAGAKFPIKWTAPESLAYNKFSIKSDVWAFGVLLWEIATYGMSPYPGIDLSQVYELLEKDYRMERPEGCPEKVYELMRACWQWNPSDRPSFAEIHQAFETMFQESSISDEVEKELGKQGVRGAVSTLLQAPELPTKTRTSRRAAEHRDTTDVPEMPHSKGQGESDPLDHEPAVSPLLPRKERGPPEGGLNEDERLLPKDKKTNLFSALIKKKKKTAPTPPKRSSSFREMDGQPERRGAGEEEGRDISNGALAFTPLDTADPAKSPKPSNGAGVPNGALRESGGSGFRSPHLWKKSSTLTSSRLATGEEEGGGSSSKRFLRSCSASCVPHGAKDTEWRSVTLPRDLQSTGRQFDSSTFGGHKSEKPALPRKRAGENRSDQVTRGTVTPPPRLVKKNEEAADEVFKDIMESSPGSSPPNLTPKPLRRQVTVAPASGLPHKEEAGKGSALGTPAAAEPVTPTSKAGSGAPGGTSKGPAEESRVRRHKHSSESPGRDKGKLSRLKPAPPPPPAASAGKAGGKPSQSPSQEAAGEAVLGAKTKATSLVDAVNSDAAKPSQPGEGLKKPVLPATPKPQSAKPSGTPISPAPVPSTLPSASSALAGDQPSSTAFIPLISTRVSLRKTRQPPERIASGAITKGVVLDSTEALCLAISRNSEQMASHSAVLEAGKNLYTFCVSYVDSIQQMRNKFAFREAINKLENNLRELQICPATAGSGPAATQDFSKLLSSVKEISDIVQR
# T1 sequence (P21802 22-821): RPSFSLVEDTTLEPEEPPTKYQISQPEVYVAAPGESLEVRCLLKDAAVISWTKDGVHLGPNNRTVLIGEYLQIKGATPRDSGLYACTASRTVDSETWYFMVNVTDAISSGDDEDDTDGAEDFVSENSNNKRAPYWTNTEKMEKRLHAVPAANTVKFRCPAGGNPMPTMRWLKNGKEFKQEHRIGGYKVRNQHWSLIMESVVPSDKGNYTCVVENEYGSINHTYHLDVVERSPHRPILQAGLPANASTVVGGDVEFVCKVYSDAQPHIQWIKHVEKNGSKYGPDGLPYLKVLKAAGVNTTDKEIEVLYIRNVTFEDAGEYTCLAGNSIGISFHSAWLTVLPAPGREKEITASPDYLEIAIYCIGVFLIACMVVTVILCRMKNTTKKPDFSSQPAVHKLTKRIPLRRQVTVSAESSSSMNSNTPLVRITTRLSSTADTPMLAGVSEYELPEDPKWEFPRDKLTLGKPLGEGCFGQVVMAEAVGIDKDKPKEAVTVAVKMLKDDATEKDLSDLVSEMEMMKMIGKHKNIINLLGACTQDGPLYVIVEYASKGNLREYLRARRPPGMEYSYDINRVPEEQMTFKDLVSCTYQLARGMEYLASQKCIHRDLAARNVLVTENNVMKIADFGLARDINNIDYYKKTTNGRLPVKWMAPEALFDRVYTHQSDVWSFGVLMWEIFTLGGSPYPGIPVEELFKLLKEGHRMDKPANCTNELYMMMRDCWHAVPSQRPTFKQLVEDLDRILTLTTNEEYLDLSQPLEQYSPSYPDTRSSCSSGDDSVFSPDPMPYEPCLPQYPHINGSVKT
Compound,HR activity as compared to vehicle-treated cells (U2OS DR-GFP cells),IR-induced recruitment of RPA32 and RAD51 into repair foci (in words) (U2OS cells [1]),"IR-induced phosphorylation of ATM, H2AX, or KAP-1 (in words) (U2OS cells [2]; 10 μM 24 h)","induction of RPA-coated ssDNA, p53, phosphorylation of ATR, ATM, Chk1, H2AX (in words) (U2OS cells [2]; no IR)",decrease of all four dNTPs (U2OS cells [3]),remaining binding at 2 µM (FGFR2),IC50 (PFKFB4; ADP-GLO assay),selectivity window PFKFB3 versus PFKFB4 (PFKFB4; ratio of IC50 values),remaining binding at 2 µM (DCAMKL1),remaining binding at 2 µM (ABL1-phosphorylated),remaining binding at 2 µM (CDK9)
"O=C(OCCO)c1ccc(NS(=O)(=O)c2cccc(-c3cc(F)ccc3O)c2)cc1O [KAN0438757, 2-Hydroxyethyl-4-{[(5′-fluoro-2′-hydroxybiphenyl-3-yl)sulfonyl]amino}-2-hydroxybenzoate]",10%,disrupted,did not affect,did not induce,50–75%,–,–,–,–,–,–
"O=C(O)c1ccc(NS(=O)(=O)c2cccc(-c3cc(F)ccc3O)c2)cc1O [KAN0438241, 4-{[(5′-Fluoro-2′-hydroxybiphenyl-3-yl)sulfonyl]amino}-2-hydroxybenzoic acid]",–,–,–,–,–,88%,3.6 µM,about 20 fold,95%,96%,100%

# — PMC6155239, “Targeting PFKFB3 radiosensitizes cancer cells and suppresses homologous recombination” (Nature Communications, 2018)
